Where “and” joins values, the source holds several entries; their conditions need not be identical. Equal values may be shown once.
Experiments:
NMRI mice = experiment: Anorectic action: cumulated evaporated milk consumption after oral administration; assay type: in vivo; details: for cumulated milk consumption of the treated animals (male): oral dose 50 mg/kg via stomach tube, male NMRI mice after 24 hours feed withdrawal, milk offered 30 minutes after dosing, consumption determined half-hourly for 7 hours; for Reduction of the cumulated milk consumption in % of the control: oral dose 50 mg/kg, male NMRI mice, compared with untreated control animals
Description: The anorectic action was tested on male or female NMRI mice. After withdrawal of feed for 24 hours, the test preparation was administered via a stomach tube. Kept individually and with free access to drinking water, the animals were offered evaporated milk 30 minutes after giving the preparation. The consumption of evaporated milk was determined half-hourly for 7 hours and the general condition of the animals was observed. The measured milk consumption was compared with that of the untreated control animals.

| SMILES | cumulated milk consumption of the treated animals (male) (NMRI mice; 50 mg/kg) | Reduction of the cumulated milk consumption in % of the control (NMRI mice; 50 mg/kg) | melting point | cumulated milk consumption of the treated animals (male) (NMRI mice) | Reduction of the cumulated milk consumption in % of the control (NMRI mice) | cumulated milk consumption of the treated animals (male) (NMRI mice; Hydrobromide, 50 mg/kg) | Reduction of the cumulated milk consumption in % of the control (NMRI mice; Hydrobromide, 50 mg/kg) |
| --- | --- | --- | --- | --- | --- | --- | --- |
| CC(C)(C)c1ccc(OCC2=NC3(O)c4ccc(Cl)cc4CC3S2)cc1 (single isomer, unassigned) [Example 3] | 5/0.78 ml | 73% | – | – | – | – | – |
| Br.OC12N=C(COc3ccc(Cl)cc3Cl)SC1Cc1cc(Cl)ccc12 (stereo not shown) [Example 2] | 5/0.34 ml | 88% | – | – | – | – | – |
| CC(C)(C)c1ccc(OCC2=NC3(O)c4ccc(Cl)cc4CC3S2)cc1 (single isomer, unassigned) [Example 9, 2-(4-tert-butylphenoxymethyl)-6-chloro-8,8a-dihydroindeno [1,2-d]thiazol-3a-ol] | 5/0.26 ml | 93% | 123 °C and 122 to 124 °C | – | – | – | – |
| OC12N=C(CSCc3ccccc3)SC1Cc1cc(Cl)ccc12 (stereo not shown) [Example 12, 2-Benzylsulfanylmethyl-6-chloro-8,8a-dihydroindeno [1,2-d]thiazol-3a-ol] | – | – | 102 to 104 °C and 102 °C | 5/1.36 ml | 71% | – | – |
| Br.OC12N=C(COc3ccc(Cl)cc3Cl)SC1Cc1cc(Cl)ccc12 (stereo not shown) [Example 6, 6-Chloro-2-(2,4-dichlorophenoxymethyl)-8,8a-dihydroindeno[1,2-d]thiazol-3a-ol Hydrobromide] | – | – | 170 °C | – | – | 5/0.22 ml | 95% |
| OC12N=C(COc3ccccc3)SC1Cc1cc(Cl)ccc12 (stereo not shown) [Example 1, 6-chloro-2-phenoxymethyl-8,8a-dihydroindeno[1,2-d]thiazol-3a-ol] | – | – | 121 °C | 5/0.42 ml | 86% | – | – |

— patent US6387935B1, “Polycyclic dihydrothiazoles having substituted alkyl radicals in the two-position, process for their preparation, and their use as pharmaceuticals” (Aventis Pharma Deutschland GmbH, priority 1999, dated 2002)
